# Data reported in patent publication US20030134859A1 (SANKYO COMPANY, LIMITED, priority 2000, published 2003).
# Where a name gives a salt, the structure may show the parent alone.
# Biological target: T1, human PPAR γ 2 (Homo sapiens, UniProt P37231)
# T1 construct: expressed in transfected cells; host or cells: human osteosarcoma MG63, transiently co-transfected with pSG5-hPPARg and the reporter pGV-P2-PPRE
# T1 sequence (P37231 1-505): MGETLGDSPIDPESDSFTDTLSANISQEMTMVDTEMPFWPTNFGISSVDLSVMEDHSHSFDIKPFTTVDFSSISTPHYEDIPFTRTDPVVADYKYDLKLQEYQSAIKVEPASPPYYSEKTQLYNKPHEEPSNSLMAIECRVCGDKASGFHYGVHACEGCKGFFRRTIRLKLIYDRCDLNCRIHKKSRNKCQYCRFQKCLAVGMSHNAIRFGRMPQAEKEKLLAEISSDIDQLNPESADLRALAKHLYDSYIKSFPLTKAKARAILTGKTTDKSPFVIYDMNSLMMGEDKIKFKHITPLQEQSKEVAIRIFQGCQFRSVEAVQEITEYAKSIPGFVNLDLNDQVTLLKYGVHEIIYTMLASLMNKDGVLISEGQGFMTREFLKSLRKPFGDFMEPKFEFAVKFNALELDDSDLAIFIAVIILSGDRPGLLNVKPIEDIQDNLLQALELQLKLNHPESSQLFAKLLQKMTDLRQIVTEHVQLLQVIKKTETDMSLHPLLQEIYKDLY
# Experiment: Inhibitory activity against PPAR γ transcription in the presence of agonist compound A, luciferase reporter
# Type: cell-based
# Settings: in the presence of 10 nM compound A (agonist); MG63 cells transfected with pSG5-hPPARg and pGV-P2-PPRE; 24 hr
row,SMILES,IC50
1,"Cc1ccc2nc(-c3ccc(NC(=O)c4cc([N+](=O)[O-])ccc4Cl)cc3)sc2c1 [Example 10, N-[4-(6-Methylbenzothiazol-2-yl)phenyl]-(2-chloro-5-nitrophenyl)carboxamide]",0.071 µM
2,"Cc1cccc(-c2csc(NC(=O)c3cc([N+](=O)[O-])ccc3Cl)n2)c1 [Example 40, N-[4-(3-Methylphenyl)thiazol-2-yl)-(2-chloro-5-nitrophenyl)carboxamide]",0.057 µM
3,"CCc1ccc(-c2csc(NC(=O)c3cc([N+](=O)[O-])ccc3Cl)n2)cc1 [Example 44, N-[4-(4-Ethylphenyl)thiazol-2-yl]-(2-chloro-5-nitrophenyl)carboxamide]",0.084 µM
4,"O=C(Nc1cccnc1)c1cc([N+](=O)[O-])ccc1Cl [Example 50, N-(3-Pyridyl)-(2-chloro-5-nitrophenyl)carboxamide]",0.11 µM
5,"Cc1cc(Cl)nc(NC(=O)c2cc([N+](=O)[O-])ccc2Cl)n1 [Example 78, N-(4-Chloro-6-methylpyrimidin-2-yl)-(2-chloro-5-nitrophenyl)carboxamide]",0.084 µM
6,"CC(C)(C)OC(=O)Nc1ccc(-c2ccc(NC(=O)c3cc([N+](=O)[O-])ccc3Cl)cc2)cc1 [Example 87, N-[4-[4-(tert-Butoxycarbonylamino)phenyl]phenyl]-(2-chloro-5-nitrophenyl)carboxamide]",0.033 µM
7,"CCCCCCN(C)c1ccc(-c2ccc(NC(=O)c3cc([N+](=O)[O-])ccc3Cl)cc2)cc1 [Example 196, N-[4-[4-(N-Hexyl-N-methylamino)phenyl]phenyl]-(2-chloro-5-nitrophenyl)carboxamide]",0.99 µM
8,"CCCCCCN(CC)c1ccc(-c2ccc(NC(=O)c3cc([N+](=O)[O-])ccc3Cl)cc2)cc1 [Example 197, N-[4-[4-(N-Ethyl-N-hexylamino)phenyl]phenyl]-(2-chloro-5-nitrophenyl)carboxamide]",0.28 µM
9,"CCCCCCCCN(CCCC)c1ccc(-c2ccc(NC(=O)c3cc([N+](=O)[O-])ccc3Cl)cc2)cc1 [Example 222, N-[4-[4-(N-Butyl-N-octylamino)phenyl]phenyl]-(2-chloro-5-nitrophenyl)carboxamide]",0.16 µM
10,"CCCCCCCCN(CCCC)c1ccc(-c2ccc(NC(=O)c3cc([N+](=O)[O-])ccc3Cl)cc2)cc1.Cl [Example 223, N-[4-[4-(N-Butyl-N-octylamino)phenyl]phenyl]-(2-chloro-5-nitrophenyl)carboxamide mono-hydrochloride]",0.089 µM
11,"CCCCCCCCN(CCC)c1ccc(-c2ccc(NC(=O)c3cc([N+](=O)[O-])ccc3Cl)cc2)cc1 [Example 224, N-[4-[4-(N-Octyl-N-propylamino)phenyl]phenyl]-(2-chloro-5-nitrophenyl)carboxamide]",0.079 µM

# Continued, values first:
row,IC50,SMILES
1,0.015 µM,"N#Cc1ccc(NC(=O)c2cc([N+](=O)[O-])ccc2Cl)cc1 [Example 20, N-(4-Cyanophenyl)-(2-chloro-5-nitrophenyl)carboxamide]"
2,0.037 µM,"Cc1ccnc(NC(=O)c2cc([N+](=O)[O-])ccc2Cl)n1 [Example 65, N-(4-Methylpyrimidin-2-yl)-(2-chloro-5-nitrophenyl)carboxamide]"
3,0.018 µM,"CCCCCCNc1ccc(-c2ccc(NC(=O)c3cc([N+](=O)[O-])ccc3Cl)cc2)cc1 [Example 195, N-[4-[4-(N-Hexylamino)phenyl]phenyl]-(2-chloro-5-nitrophenyl)carboxamide]"
4,0.0083 µM,"CCCCCCCCNc1ccc(-c2ccc(NC(=O)c3cc([N+](=O)[O-])ccc3Cl)cc2)cc1 [Example 219, N-[4-[4-(N-Octylamino)phenyl]phenyl]-(2-chloro-5-nitrophenyl)carboxamide]"
5,0.018 µM,"CCCCCCCCN(CCCCCC)c1ccc(-c2ccc(NC(=O)c3cc([N+](=O)[O-])ccc3Cl)cc2)cc1 [Example 220, N-[4-[4-(N-Hexyl-N-octylamino)phenyl]phenyl]-(2-chloro-5-nitrophenyl)carboxamide mono-hydrochloride]"
